Assay results as given in publication PMC10560236, “A protein kinase C α and β inhibitor blunts hyperphagia to halt renal function decline and reduces adiposity in a rat model of obesity-driven type 2 diabetes” (Scientific Reports, 2023).
Several values for one entry are separate records, joined by “and”; a condition that tells them apart may be missing. Identical values can stand only once.

Legend:
[1] = molecular target: PKC activity in glomerular lysates from ZSF1 obese rats; assay: Radioactive pan-PKC kinase assay with glomerular lysates; format: biochemical, rat; settings: glomerular lysates from 20-week old ZSF1 obese rats, pan-PKC pseudo-substrate peptide
Experimental: Glomeruli were isolated using an established protocol of serially sieving minced kidney cortex tissue through mesh filters of decreasing pore size[69]. For radioactive pan-PKC assays, glomeruli were lysed in a buffer consisting of 50 mM Tris–HCl pH 8, 5 mM EDTA, 5 mM EGTA, protease and phosphatase inhibitor cocktails, 1% 2-mercaptoethanol, and 0.028% n-dodecyl-β-D-maltopyranoside (Anatrace D310) by sonication using two 10 s pulses with a probe sonicator. Supernatants were collected following centrifugation at 4 °C at 20,200 × g for 10 min. A 25 μL aliquot was used in a 50 μL ^32P-ATP pan-PKC radioactive kinase assay with the pan-PKC pseudo-substrate peptide RFARKGSLRQKNV. The reaction was incubated for 10 min at 37 °C prior to filter binding and scintillation counting. Data are reported as CPM incorporation per μg of total protein in the reaction, as determined using Pierce Coomassie Plus Protein Assay of the original lysate (Pierce 23236). Where indicated, the reaction was run in the presence of increasing amounts of Cmpd 1.

[2] = system: ZSF1 obese rats; assay: 7-day oral gavage study, food consumption and body weight; format: in vivo, rat; settings: 100 mpk daily oral gavage, 7 days
[3] = system: intact glomeruli isolated from SD rats; assay: PMA-luminol ROS assay in intact glomeruli; format: cell-based; settings: intact SD rat glomeruli, 16 μM PMA, luminol luminescence; read-out: IC50, PMA-induced ROS production (change in velocity)
Experimental: For the phorbol 12-myristate 13-acetate (PMA)-luminol assay, glomeruli isolated from PBS-perfused kidneys were diluted in an HBSS solution containing 1 mM luminol, 0.1 M HEPES, and 0.1% fatty-acid free BSA. Approximately 3000 glomeruli were plated per well in a 96-well white OPTI-plate (Perkin Elmer 6005290). The reaction was started by the addition of PMA to a final concentration of 16 μM in the absence or presence of increasing Cmpd 1. Luminol luminescence was read on an Envision plate reader in kinetic read mode.

[4] = system: ZSF1 obese rats; assay: 10-week efficacy study with chow dosing; format: in vivo, rat
From the text: Male ZSF1 (ZSF1-Lepr^faLepr^cp/Crl) lean rats (strain code #379) and ZSF1 obese rats (strain code #378) were obtained from Charles River Laboratories (Wilmington, MA). Male rats for all groups were obtained at 8–9 weeks of age at which time they were switched to high carbohydrate Purina 5008 chow (27% kcal protein, 17% kcal fat, 57% kcal carbohydrates). At 21–22 weeks of age they were then enrolled in the 10 week study. All groups were maintained on normal Purina 5008 chow for the 10 week study except the Cmpd 1 group, which was provided Purina 5008 chow formulated with 0.744g Cmpd 1 per kg chow (approximately 50 mpk/d Cmpd 1 administration; n = 5 Lean, n = 12 Obese, n = 11 Cmpd 1, n = 11 Food matched—see Fig. 4a). The amount of food provided to the Food matched group each week was determined by the estimated food consumption by the Cmpd 1 group the previous week. For all three ZSF1 obese groups, 3 animals were taken down at study mid-point for an interim analysis. All experimental protocols involving animals were reviewed and approved by the Pfizer Inc. Institutional Animal Care and Use Committee (IACUC). All experiments were performed in accordance with relevant guidelines and regulations, and all methods are reported in accordance with ARRIVE guidelines (https://arriveguidelines.org).
Male ZSF1 obese rats that had been maintained on Purina 5008 chow were switched to Purina 5008 chow with or without 0.744 g/kg Cmpd 1 at 22 weeks of age. The study duration was 10 weeks. Estimated food consumption monitored weekly. An additional group of ZSF1 obese rats was included which received an amount of Purina 5008 chow to match the previous week’s estimated food consumption by the Cmpd 1 group. Five male ZSF1 lean littermates served as baseline controls. Intermediate blood samples were taken through tail vein. 24-h urine samples at weeks 0, 5 and 10 were collected from animals in metabolic cages. Animals were sacrificed by CO2 asphyxiation followed by blood collection via cardiac puncture and tissues fixation in 10% neutral buffered formalin for histology. Unfixed inguinal white adipose tissue was also collected at study termination for downstream molecular analyses.
All assays except the insulin assay were run with the ADVIA 1800 Chemistry System (Siemens Medical Systems Diagnostics, Tarrytown, NY, USA). The serum insulin assay was run using a SpectraMax® Plus384 Absorbance Microplate Reader (Molecular Devices San Jose, CA, USA). Siemens Medical System assay kits 10376501, 10311891, 10335892, and 10335891 were used for cholesterol, low density lipoprotein (LDL)-cholesterol, triglycerides, and glucose, respectively. Roche HDL-C Reagent 3rd generation assay kit 4713257190 was used for high density lipoprotein (HDL)-cholesterol assay. For insulin, an ALPCO Diagnostics assay kit 80-INSMS-E01 was used.
Samples of formalin-fixed, paraffin embedded (FFPE) liver and kidney were sectioned and stained for Hematoxylin and Eosin (HE) and evaluated microscopically by a board-certified veterinary pathologist blinded to the treatment groups. In the kidney, microscopic features were assigned an end stage renal disease (ESRD) severity score of 1–5 (minimal to severe) using the following criteria: Grade 1 (minimal): < 10% of parenchyma affected, few glomeruli affected and no Bowman’s capsule thickening with only few protein casts and basophilic tubules observed; Grade 2 (mild): 10–25% of renal parenchyma affected, there is scattered thickening of Bowman’s capsule, +/− synechiation; Grade 3 (moderate): 26–50% of renal parenchyma affected, glomerular and tubulointerstitial changes are present; Grade 4 (marked): 51–75% of renal parenchyma affected, glomerular and tubulointerstitial changes are present; Grade 5 (severe): > 75% of renal parenchyma affected, glomerular and tubulointerstitial changes are present. […]

[5] = system: HEK293 cells overexpressing PKCβ2; assay: PMA-induced IL-8 production in HEK293 cells over-expressing PKCβ2; format: cell-based; settings: HEK293 over-expressing PKCβ2, 3 nM PMA, 4-h supernatants; read-out: IC50, inhibition of IL-8 production in response to PMA
Experimental: For the HEK293 cell-based assay, HEK293 cells engineered to over-express full-length PKCβ2 were stimulated with 3 nM PMA in DMEM media supplemented with 0.5% FBS. 4-h cell culture supernatants were analyzed for IL-8 by MSD (Rockville, MD).

Question: How did the IC50 [1] turn out when Cc1ncc(F)c(Nc2n[nH]c3c2CN(C(=O)N2C[C@@H](C)N(CC4CCOCC4)C[C@@H]2C)C3(C)C)n1 [Cmpd 1, 5-[(2S,5R)-2,5-dimethyl-4-(tetrahydro-2H-pyran-4-ylmethyl)piperazin-l-yl]carbonyl-N-(5-fluoro-2-methylpyrimidin-4-yl)-6,6-dimethyl-1,4,5,6-tetrahydropyrrolo[3,4-c]pyrazol-3-amine] was run?
Answer: 70 nM

Question: And the Animal body weights [2]?
Answer: decreased

Question: And the Food consumption [2]?
Answer: decreased

Question: And the IC50 [3]?
Answer: 76 nM

Question: What about the “Progressive decline in renal function (uMALB:creatinine ratio, 24-h urinary protein excretion)” value ([4]; 10-week study, same in Food matched group) of the same compound?
Answer: virtually halted

Question: What about the “Average body weight at study termination” value ([4]; 10 weeks Cmpd 1 chow) of the same compound?
Answer: 504 g and 504 ± 35 g

Question: What about the “Estimated food consumption at study termination” value ([4]; 10 weeks Cmpd 1 chow) of the same compound?
Answer: 31 g/day

Question: What about the “Body weight less than Lean animals at study termination” value ([4]; 10 weeks, not statistically different) of the same compound?
Answer: approximately 7%

Question: What about the “Estimated average food consumption, first three days” value ([4]; Cmpd 1 chow approx. 50 mpk/day) of the same compound?
Answer: 22 g/day

Question: What about the “Reduction in food consumption versus Obese group, first three days” value ([4]; Cmpd 1 chow approx. 50 mpk/day) of the same compound?
Answer: 27%

Question: What about the “Animals with liver macrovacuolation score of 0” value ([4]; after 10 weeks of dosing, score 0–3) of the same compound?
Answer: five of eight

Question: What about the “ESRD score at study termination” value ([4]; blinded histology, versus Obese, comparable to Food matched group) of the same compound?
Answer: reduced comparably

Question: And the “Serum cholesterol and triglyceride profile versus Obese group” value ([4]; non-fasting serum)?
Answer: improved

Question: What about the Serum glucose levels ([4]; non-fasting serum) of the same compound?
Answer: elevated

Question: And the “Serum AST versus Obese group” value ([4]; non-fasting, 5 weeks, statistically significant, not evident at 10 weeks)?
Answer: increased

Question: What about the “Serum ALT versus Obese group” value ([4]; non-fasting, 10 weeks, statistically significant) of the same compound?
Answer: reduced

Question: What about the Serum insulin ([4]; non-fasting, week 5 study midpoint) of the same compound?
Answer: 0.62 (± 0.35) ng/mL

Question: What about the “ESRD severity grade of representative kidney image” value ([4]; study endpoint, representative image Fig. 6c) of the same compound?
Answer: Grade 1 (Grade 1 (minimal): < 10% of parenchyma affected)

Question: What about the “Average body weight at study start” value ([4]; study start, 21–22 weeks of age) of the same compound?
Answer: 564 g

Question: And the iWAT weight ([4]; study termination)?
Answer: 29 ± 5.5 g

Question: And the “Increase in adipocyte size in iWAT” value ([4]; study termination, histology, not in Food matched group)?
Answer: blunted

Question: And the “Average CD45+ cell staining area in iWAT” value ([4]; study termination, immunohistochemistry)?
Answer: 0.045 ± 0.025%

Question: And the Liver weights ([4]; study termination, primarily reflected overall body weight differences)?
Answer: reduced

Question: And the IC50 [5]?
Answer: 26 nM
